Measurements taken from patent US20250387388A1, “COMPOUND AS TRK INHIBITOR AND/OR RET INHIBITOR AND USE THEREOF” (Medinno Pharmaceutical Technology (Zhuhai) Co., Ltd., priority 2022, published 2025).

Experiments:
[1] = system: atopic dermatitis/eczema in mice; test: Atopic dermatitis/eczema model in mice (dust mite extract + SEB); assay type: in vivo
[2] = system: external hemorrhoids in rats; test: External hemorrhoid model in rats (acetic acid); assay type: in vivo, SD rats
From the text: • (1) Blank control group (7 rats) • (2) Hemorrhoid model group (10 rats) • (3) Hemorrhoid model group+positive control drug (Mayinglong Hemorrhoid Ointment) group (8 rats) • (4) Hemorrhoid model group+vehicle treatment (Gel excipient) (8 rats) • (5) Hemorrhoids model group+0.1% MDI-1228 gel preparation group (8 rats) • (6) Hemorrhoids model group+0.3% MDI-1228 gel preparation group (8 rats) • (7) Hemorrhoids model group+1% MDI-1228 gel preparation group (8 rats) • (8) Hemorrhoids model group+3% MDI-1228 gel preparation group (8 rats) • Experimental environment: Temperature 20° C.-26° C., humidity 40%-70%
Apart from the normal control group, all groups were treated by first disinfecting the perianal skin. A 75% acetic acid solution was prepared and injected subcutaneously in a scattered pattern around the anus of each rat at a dose of 0.05 ml.
The recipe and preparation method for 1% MDI-1228 gel were as follows:
The control group and model group received no treatment (no therapy). Administration begined 24 hours after the model induction was successful. Group 3) was administrated with Mayinglong Hemorrhoid Ointment (7.5 g/Kg), three times, 10 min each time; Group 4) was administrated with a blank gel forming agent (1 g/Kg) around the anus; Groups 5)-8) were administrated with different concentrations of MDI-1228 compound gel preparation (1 g/Kg) around the anus, twice daily, 10 min each time, followed by covering with plastic wrap and fixing with tape to prevent the drug from falling off and affecting efficacy. After 6 hours, the dressing was removed, and the application site was cleaned with normal saline. The administration was continued for 11 days.
Observe the healing of the ulcer site on days 3, 5, 7, 9, and 11 of administration, and assess the ulcer score (scoring criteria: ulcer exudate present=1 point; minimal ulcer exudate=2 points; scab present, nearly healed=3 points; completely healed=4 points).
On an 11-day administration, animals were euthanized by inhalation of excess carbon dioxide, and perianal rectal tissue was taken for HE staining, and serum was taken for ELISA detection.
Tissue samples from animal Rectal were excised, fixed in 10% neutral formalin buffer solution, dehydrated, embedded in paraffin, and sectioned and HE stained for observation of rectal histopathological morphology changes. The reagents and instruments required for HE staining included: Hematoxylin staining solution (AR11800-1, BOSTER); Eosin staining solution (AR11800-2, BOSTER); Ultra-clean advanced mounting medium (YZB, BASO); Scott's blueing solution (G1865, Solarbio), etc. Medication refrigerator (BYC-310, Shandong Bokai Biotech); Microscope (CX41 OLYMPUS); Microtome (BQ-318D, Berne); Electric heating blast drying oven (DHG-9070A, Hengke Scientific Instrument Co., Ltd.). The taken tissue was rinsed with running water for several hours, dehydrated through a series of ethanol solutions (70%, 80%, 90%), and then treated with a mixture of pure alcohol and xylene at a ratio of 1:1 for 15 minutes, followed by xylene I for 15 minutes and xylene II for 15 minutes (until transparent). The tissue was then placed in a mixture of xylene and paraffin at a ratio of 1:1 for 15 minutes, followed by immersion with paraffin I and paraffin 11 each for 50-60 minutes. The tissue was embedded in paraffin and sectioned, and the sections were dried, dewaxed and hydrated in distilled water. […]

## CCc1cc(O)c(F)cc1-c1ccc2c(-c3nc4c([nH]3)CN(C(=O)N3CC[C@H](O)C3)C4)n[nH]c2c1 [MDI-1228, (S)-(2-(6-(2-ethyl-5-fluoro-4-hydroxyphenyl)-1H-indazol-3-yl)-4,6-dihydropyrrolo[3,4-d]imidazol-5-(1H)-yl)(3-hydroxylpyrrolidin-1-yl)ketone]
[1]; 0.5% MDI-1228 gel
  Skin HE staining and toluidine blue staining: a decrease in mast cells and inflammatory cells compared to the model group
[1]; 1% and 3% MDI-1228 gel
  Skin HE staining and toluidine blue staining: relatively significant therapeutic effects
[1]; 3% MDI-1228 gel
  Reduction in area under the curve (AUC) of the dermatitis scores vs. model group: 23.75%
[1]; Day 1, 0.5% MDI-1228 gel
  Number of Scratch Incidents (±SE): 24.0 ± 3.60
  Scratch Duration (±SE): 241.00 ± 48.16
[1]; Day 1, 0.5% MDI-1228 gel 0.7 g gel/kg twice a day
  Skin Erythema, Hemorrhage, Eruption, and Desquamation (Lesion Scoring) (Mean ± SE): 4.13 ± 0.55
[1]; Day 1, 1% MDI-1228 gel
  Number of Scratch Incidents (±SE): 20.38 ± 2.08
  Scratch Duration (±SE): 211.50 ± 22.88
[1]; Day 1, 1% MDI-1228 gel 1 g gel/kg twice a day
  Skin Erythema, Hemorrhage, Eruption, and Desquamation (Lesion Scoring) (Mean ± SE): 4.75 ± 0.75
[1]; Day 1, 3% MDI-1228 gel
  Number of Scratch Incidents (±SE): 23.00 ± 2.46
  Scratch Duration (±SE): 288.00 ± 19.68
[1]; Day 1, 3% MDI-1228 gel 1 g gel/kg twice a day
  Skin Erythema, Hemorrhage, Eruption, and Desquamation (Lesion Scoring) (Mean ± SE): 3.38 ± 0.42
[1]; Day 4, 0.5% MDI-1228 gel 0.7 g gel/kg twice a day
  Skin Erythema, Hemorrhage, Eruption, and Desquamation (Lesion Scoring) (Mean ± SE): 2.88 ± 0.64
[1]; Day 4, 1% MDI-1228 gel 1 g gel/kg twice a day
  Skin Erythema, Hemorrhage, Eruption, and Desquamation (Lesion Scoring) (Mean ± SE): 3.25 ± 0.49
[1]; Day 4, 3% MDI-1228 gel 1 g gel/kg twice a day
  Skin Erythema, Hemorrhage, Eruption, and Desquamation (Lesion Scoring) (Mean ± SE): 2.63 ± 0.46
[1]; Day 7, 0.5% MDI-1228 gel 0.7 g gel/kg twice a day
  Skin Erythema, Hemorrhage, Eruption, and Desquamation (Lesion Scoring) (Mean ± SE): 2.13 ± 0.58
[1]; Day 7, 1% MDI-1228 gel 1 g gel/kg twice a day
  Skin Erythema, Hemorrhage, Eruption, and Desquamation (Lesion Scoring) (Mean ± SE): 2.13 ± 0.30
[1]; Day 7, 3% MDI-1228 gel 1 g gel/kg twice a day
  Skin Erythema, Hemorrhage, Eruption, and Desquamation (Lesion Scoring) (Mean ± SE): 1.75 ± 0.31
[1]; Day 14, 0.5% MDI-1228 gel
  Number of Scratch Incidents (±SE): 30.38 ± 3.79
  Scratch Duration (±SE): 165.63 ± 27.56
[1]; Day 14, 0.5% MDI-1228 gel 0.7 g gel/kg twice a day
  Skin Erythema, Hemorrhage, Eruption, and Desquamation (Lesion Scoring) (Mean ± SE): 1.25 ± 0.36
[1]; Day 14, 1% MDI-1228 gel
  Number of Scratch Incidents (±SE): 28.13 ± 2.05
  Scratch Duration (±SE): 182.0 ± 25.39
[1]; Day 14, 1% MDI-1228 gel 1 g gel/kg twice a day
  Skin Erythema, Hemorrhage, Eruption, and Desquamation (Lesion Scoring) (Mean ± SE): 1.38 ± 0.18
[1]; Day 14, 3% MDI-1228 gel
  Number of Scratch Incidents (±SE): 23.75 ± 2.62
  Scratch Duration (±SE): 173.13 ± 19.26
[1]; Day 14, 3% MDI-1228 gel 1 g gel/kg twice a day
  Skin Erythema, Hemorrhage, Eruption, and Desquamation (Lesion Scoring) (Mean ± SE): 1.63 ± 0.26
[1]; MDI-1228 gel preparation
  Effect on inflammation in atopic dermatitis/eczema (conclusion): significant inhibitory effects on inflammation
[1]; MDI-1228 gel, vs. model group
  IFN-γ level in serum: significantly increased
  IL-4 level in serum: significantly reduced
  IL-13 level in serum: significantly reduced
[1]; MDI-1228 high-dose (3% gel), tofacitinib 10 mg/kg
  Behavioral analysis (scratch incidents and scratch duration): certain therapeutic effect in the behavioral analysis
[1]; gels with 0.5%, 1%, 3% MDI-1228, positive control Tofacitinib 10 mg/kg, 14 days
  Clinical lesion scoring, therapeutic effect: therapeutic effects similar to the positive control drug
[1]; high, medium, and low dose MDI-1228 gel, vs. model group
  TNF-α level in serum: a reduction in TNF-α levels
[2]; 0.1%, 0.3%, 1%, 3% MDI-1228 gel, positive control drug, vs. model group
  TNF-α expression in blood (ELISA): could all downregulate the expression of TNF-α
[2]; 1% MDI-1228 gel 1 g/Kg twice daily, vs. model group
  Perianal ulcer healing score: significant therapeutic effect after a 7-days administration
[2]; 3% MDI-1228 gel
  Perianal rectal tissue HE staining pathological score: the best effect
[2]; MDI-1228 gel at concentrations of 0.3% or more
  Perianal rectal tissue HE staining pathological score: more significant
[2]; MDI-1228 gel preparations at different concentrations
  Alleviation and treatment of external hemorrhoids: can effectively alleviate and treat external hemorrhoids in rats
